Reference: patent US11077167B2, “Agent for promoting skeletal muscle injury repair” (Osaka University, priority 2017, dated 2021)

System: angiogenesis
Assay: Angiogenic activity
Settings: truncated peptides compared with SVVYGLR; confirmed by the present inventors, no method given

In the case of SVVYGL, the angiogenic activity is reported as “retain the angiogenic activity of SVVYGLR”.

For VVYGLR, the angiogenic activity was “retain the angiogenic activity of SVVYGLR”.
